Assay results reported in patent publication US4210636A, “Antisecretory polypeptides” (American Home Products Corporation, priority 1978, dated 1980).
Bridge positions count the residues as written; N and C are the ends. Square brackets hold non-standard residues; d marks the D form. Peptide text beside a SMILES is read from it. Mpa = O=C(O)CCS

Legend:
[1] = system: gastric secretion (total gastric volume, hydrogen ion secretion, hydrogen ion concentration); test: Anti-secretory activity in pylorus-ligated (Shay) rat, s.c.; format: in vivo; details: for hydrogen ion secretion / total gastric volume: at the reported potency dose (IV 26.3 mg/kg; V and VI 4.40 mg/kg); for Antisecretory potency: lowest dose administered at which two of the three parameters (total gastric volume, hydrogen ion secretion, hydrogen ion concentration) were significantly decreased: pylorus-ligated male Charles River rats, 4 hours after ligation
Description: Each of the polypeptides of this invention was tested and found active parenterally (s.c.) in the scientifically recognized, standard test for anti-secretory activity which involves the following procedure in which male Charles River rats weighing 190-260 grams are deprived of food but not water for eighteen hours prior to use. Water is withheld during the actual experiment. The rats are weighed, anesthetized with ether and the pylorus is ligated according to the method of Shay et al., Gastroenterology, 26, 906-913 (1954). Treatment or vehicle control is then administered subcutaneously (s.c.). The rats are housed two per cage and sacrificed with CO2 four hours after ligation. The stomachs are removed, rinsed, and contents emptied into a graduated centrifuge tube. The tubes are centrifuged for twenty minutes at two thousand revolutions per minute and the volume of gastric juice is recorded. Any sample which is obviously contaminated with feces, food or blood is eliminated. An aliquot of each sample is frozen for later analysis of pepsin. The pH is measured and one milliliter of gastric juice is titrated with 0.1 N NaOH to a pH of 7.0-7.4. The data are analyzed by analysis of variance and, using the pooled error variance, t-comparisons are made between the groups.
(§1) The potency of each compound is reported at the end of each example illustrating its production. […] In addition, the maximum dose employed to evaluate control of growth hormone, insulin and glucagon secretion is reported.

insulin secretion = test: In vivo insulin secretion test
Excerpt: as §1

growth hormone secretion = test: In vivo growth hormone secretion test
Excerpt: as §1

glucagon secretion = test: In vivo glucagon secretion test
Excerpt: as §1

gastric acid secretion = details: dose as high as 2 μm/Kg, s.c.; cited from earlier work

C[C@@H](O)[C@@H]1NC(=O)[C@H](Cc2ccccc2)NC(=O)[C@H]([C@@H](C)O)NC(=O)[C@H](CCCCN)NC(=O)[C@H](Cc2c[nH]c3ccccc23)NC(=O)[C@H](Cc2ccccc2)NC(=O)[C@H](Cc2ccccc2)NC(=O)[C@H](CC(N)=O)NC(=O)CCSSC[C@@H](C(=O)O)NC(=O)[C@H](CO)NC1=O [V, β-Mercaptopropionyl-L-asparaginyl-L-phenylalanyl-L-phenylalanyl-L-tryptophyl-L-lysyl-L-threonyl-L-phenylalanyl-L-threonyl-L-seryl-L-cysteine cyclic (1→11) disulfide] ([Mpa]NFFWKTFTSC-OH; disulfide 1-11)
hydrogen ion secretion ([1]; pylorus-ligated rat): significantly reduced
total gastric volume ([1]; pylorus-ligated rat): significantly reduced
Antisecretory potency: lowest dose administered at which two of the three parameters (total gastric volume, hydrogen ion secretion, hydrogen ion concentration) were significantly decreased [1]: 4.40 mg/kg
Insulin secretion not inhibited at highest dose tested (insulin secretion): > 1.90 mg/kg
Growth hormone secretion not inhibited at highest dose tested (growth hormone secretion): > 1.90 mg/kg
Glucagon secretion not inhibited at highest dose tested (glucagon secretion): > 1.90 mg/kg

CSCC[C@@H]1NC(=O)[C@H](Cc2ccccc2)NC(=O)[C@H](CC(N)=O)NC(=O)[C@H](CCCCN)NC(=O)[C@@H](NC(=O)CNC(=O)[C@H](C)N)CSSC[C@@H](C(=O)O)NC(=O)[C@H](CO)NC(=O)[C@H]([C@@H](C)O)NC(=O)[C@H](Cc2ccccc2)NC(=O)[C@H]([C@@H](C)O)NC(=O)[C@H](CCCCN)NC(=O)[C@H](Cc2c[nH]c3ccccc23)NC1=O [VI, L-Alanyl-glycyl-L-cysteinyl-L-lysyl-L-asparaginyl-L-phenylalanyl-L-methionyl-L-tryptophyl-L-lysyl-L-threonyl-L-phenylalanyl-L-threonyl-L-seryl-L-cystein cyclic (3→14) disulfide] (H-AGCKNFMWKTFTSC-OH; disulfide 3-14)
pH (gastric juice) ([1]; at 4.40 mg/kg, pylorus-ligated rat): significantly reduced
hydrogen ion secretion ([1]; pylorus-ligated rat): significantly reduced
total gastric volume ([1]; pylorus-ligated rat): significantly reduced
Antisecretory potency: lowest dose administered at which two of the three parameters (total gastric volume, hydrogen ion secretion, hydrogen ion concentration) were significantly decreased [1]: 4.40 mg/kg
Insulin secretion not inhibited at highest dose tested (insulin secretion): > 1.0 mg/kg
Growth hormone secretion not inhibited at highest dose tested (growth hormone secretion): > 1.0 mg/kg
Glucagon secretion not inhibited at highest dose tested (glucagon secretion): > 1.0 mg/kg

D-Lys^9 -SRIF
effect on gastric acid secretion (gastric acid secretion): no appreciable effect

C[C@H](N)C(=O)NCC(=O)N[C@H]1CSSC[C@@H](C(=O)O)NC(=O)[C@H](CO)NC(=O)[C@H]([C@@H](C)O)NC(=O)[C@H](Cc2ccccc2)NC(=O)[C@H]([C@@H](C)O)NC(=O)[C@H](CCCCN)NC(=O)[C@H](Cc2c[nH]c3ccccc23)NC(=O)[C@H](Cc2ccccc2)NC(=O)[C@H](Cc2ccccc2)NC(=O)[C@H](CC(N)=O)NC(=O)[C@H](CCCCN)NC1=O [Somatostatin, reference compound]
Dose that effectively inhibits secretion of insulin (insulin secretion; reference): about 10 micrograms per kilogram
Dose that effectively inhibits secretion of growth hormone (growth hormone secretion; reference): about 10 micrograms per kilogram
Dose that effectively inhibits secretion of glucagon (glucagon secretion; reference): about 10 micrograms per kilogram

C[C@@H]1NC(=O)[C@H](CCCCN)NC(=O)[C@@H](N)CSSC[C@@H](C(=O)O)NC(=O)[C@H](CO)NC(=O)[C@H]([C@@H](C)O)NC(=O)[C@H](Cc2ccccc2)NC(=O)[C@H]([C@@H](C)O)NC(=O)[C@H](CCCCN)NC(=O)[C@H](Cc2c[nH]c3ccccc23)NC(=O)[C@H](Cc2ccccc2)NC(=O)[C@H](CO)NC1=O [IV, L-Cysteinyl-L-lysyl-L alanyl-L-seryl-L-phenylalanyl-L-tryptophyl-L-lysyl-L-threonyl-L-phenylalanyl-L-threonyl-L-seryl-L-cysteine cyclic (1→12) disulfide] (H-CKASFWKTFTSC-OH; disulfide 1-12)
hydrogen ion secretion ([1]; pylorus-ligated rat): significantly reduced
total gastric volume ([1]; pylorus-ligated rat): significantly reduced
Antisecretory potency: lowest dose administered at which two of the three parameters (total gastric volume, hydrogen ion secretion, hydrogen ion concentration) were significantly decreased [1]: 26.3 mg/kg
Insulin secretion not inhibited at highest dose tested (insulin secretion): > 3.10 mg/kg
Growth hormone secretion not inhibited at highest dose tested (growth hormone secretion): > 3.10 mg/kg
Glucagon secretion not inhibited at highest dose tested (glucagon secretion): > 3.10 mg/kg
